Patent US6642392B1 (priority 1997, dated 2003)

Key:
Format in all cases: in vivo
Puccinia recondita = assay: Test B: wheat leaf rust, preventive spray on wheat seedlings; conditions: for Test B disease control rating: wheat leaf rust, 100 = 100% disease control, 0 = no control, unmarked entries (standard test concentration); for Test B disease control rating (100 = 100% disease control, 0 = no disease control): wheat seedlings sprayed to run-off, inoculated the following day, rating relative to controls, unmarked compounds (standard test rate)
Outline: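 Wheat seedlings were sprayed to run-off with compound (3% acetone, 250 ppm Trem 014), then inoculated with P. recondita spores the next day. They were held 24 h saturated at 20 °C, then 6 days at 20 °C. Ratings are 0–100% disease control versus controls.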

[1] = system: Eiysiphe graminis f. sp. tritici; assay: Test A: wheat powdery mildew, preventive spray on wheat seedlings; conditions: for Test A disease control rating: wheat powdery mildew, 100 = 100% disease control, 0 = no control relative to controls, unmarked entries (standard test concentration); for Test A disease control rating (100 = 100% disease control, 0 = no disease control): wheat seedlings sprayed to run-off, inoculated the following day, rating relative to controls, unmarked compounds (standard test rate)
Outline: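 Compounds (3% acetone, 250 ppm Trem 014) sprayed to run-off on wheat seedlings, inoculated next day with spore dust. Incubated 7 days at 20° C before disease rating, 0–100% control relative to untreated controls.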

Botrytis cinerea = assay: Test E: gray mold, preventive spray on cucumber seedlings; conditions: for Test E disease control rating: gray mold on cucumber, 100 = 100% disease control, 0 = no control, unmarked entries (standard test concentration); for Test E disease control rating (100 = 100% disease control, 0 = no disease control): cucumber seedlings sprayed to run-off, inoculated the following day, rating relative to controls, unmarked compounds (standard test rate)
Outline: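 Compounds in 3% acetone were suspended with 250 ppm Trem 014 surfactant and sprayed to run-off on cucumber seedlings. B. cinerea spores were inoculated next day, then 48 h saturated humidity at 20° C and 5 days at 20° C. Disease control rated 0–100% versus controls.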

Pyricularia oryzae = conditions: for Test C disease control rating: rice blast, 100 = 100% disease control, 0 = no control, unmarked entries (standard test concentration); for Test C disease control rating (100 = 100% disease control, 0 = no disease control): rice seedlings sprayed to run-off, inoculated the following day, rating relative to controls, unmarked compounds (standard test rate)
Phytophthora infestans = conditions: for Test D disease control rating: tomato late blight, 100 = 100% disease control, 0 = no control, unmarked entries (standard test concentration); for Test D disease control rating (100 = 100% disease control, 0 = no disease control): tomato seedlings sprayed to run-off, inoculated the following day, rating relative to controls, unmarked compounds (standard test rate)

C[C@H](COc1cc(F)ccc1Cl)NC(=O)C(C#N)C(C)(C)C (single isomer, unassigned) [191b]
Test B disease control rating (Puccinia recondita): 0%
Test A disease control rating [1]: 0%
Test E disease control rating (Botrytis cinerea): 55%
Test C disease control rating (Pyricularia oryzae): 100%
Test D disease control rating (Phytophthora infestans): 47%

C=CC(C)(C)C(C#N)C(=O)N[C@H](C)COc1cc(F)ccc1Cl (single isomer, unassigned) [192a]
Test B disease control rating (Puccinia recondita): 0%
Test A disease control rating [1]: 0%
Test E disease control rating (Botrytis cinerea): 85%
Test C disease control rating (Pyricularia oryzae): 100%
Test D disease control rating (Phytophthora infestans): 0%

C=CC(C)(C)C(C#N)C(=O)N[C@H](C)COc1cc(F)ccc1Cl (single isomer, unassigned) [192b]
Test B disease control rating (Puccinia recondita): 0%
Test A disease control rating [1]: 0%
Test E disease control rating (Botrytis cinerea): 0%
Test C disease control rating (Pyricularia oryzae): 100%
Test D disease control rating (Phytophthora infestans): 0%

C=CC(C)(C)C(C#N)C(=O)N[C@H](C)COc1cc(Cl)ccc1Cl (single isomer, unassigned) [215a]
Test B disease control rating (100 = 100% disease control, 0 = no disease control) (Puccinia recondita): 0%
Test A disease control rating (100 = 100% disease control, 0 = no disease control) [1]: 63%
Test E disease control rating (100 = 100% disease control, 0 = no disease control) (Botrytis cinerea): 0%
Test C disease control rating (100 = 100% disease control, 0 = no disease control) (Pyricularia oryzae): 99%
Test D disease control rating (100 = 100% disease control, 0 = no disease control) (Phytophthora infestans): 45%

C=CC(C)(C)C(C#N)C(=O)N[C@H](C)COc1cc(Cl)ccc1Cl (single isomer, unassigned) [215b]
Test B disease control rating (100 = 100% disease control, 0 = no disease control) (Puccinia recondita): 28%
Test A disease control rating (100 = 100% disease control, 0 = no disease control) [1]: 0%
Test E disease control rating (100 = 100% disease control, 0 = no disease control) (Botrytis cinerea): 83%
Test C disease control rating (100 = 100% disease control, 0 = no disease control) (Pyricularia oryzae): 99%
Test D disease control rating (100 = 100% disease control, 0 = no disease control) (Phytophthora infestans): 76%

C[C@H](COc1cc(F)ccc1F)NC(=O)C(C#N)C(C)(C)C=CF (single isomer, unassigned) [221a]
Test B disease control rating (100 = 100% disease control, 0 = no disease control) (Puccinia recondita): 0%
Test A disease control rating (100 = 100% disease control, 0 = no disease control) [1]: 0%
Test E disease control rating (100 = 100% disease control, 0 = no disease control) (Botrytis cinerea): 0%
Test C disease control rating (100 = 100% disease control, 0 = no disease control) (Pyricularia oryzae): 100%
Test D disease control rating (100 = 100% disease control, 0 = no disease control) (Phytophthora infestans): 41%

C[C@H](COc1cc(F)ccc1F)NC(=O)C(C#N)C(C)(C)C=CF (single isomer, unassigned) [221b]
Test B disease control rating (100 = 100% disease control, 0 = no disease control) (Puccinia recondita): 68%
Test A disease control rating (100 = 100% disease control, 0 = no disease control) [1]: 62%
Test E disease control rating (100 = 100% disease control, 0 = no disease control) (Botrytis cinerea): 0%
Test C disease control rating (100 = 100% disease control, 0 = no disease control) (Pyricularia oryzae): 100%
Test D disease control rating (100 = 100% disease control, 0 = no disease control) (Phytophthora infestans): 41%

CC(C=Cc1cc(F)ccc1F)NC(=O)C(C#N)C(C)(C)C (single isomer, unassigned) [229a]
Test B disease control rating (100 = 100% disease control, 0 = no disease control) (Puccinia recondita): 0%
Test A disease control rating (100 = 100% disease control, 0 = no disease control) [1]: 0%
Test E disease control rating (100 = 100% disease control, 0 = no disease control) (Botrytis cinerea): 55%
Test C disease control rating (100 = 100% disease control, 0 = no disease control) (Pyricularia oryzae): 100%
Test D disease control rating (100 = 100% disease control, 0 = no disease control) (Phytophthora infestans): 0%

CC(C=Cc1cc(F)ccc1F)NC(=O)C(C#N)C(C)(C)C (single isomer, unassigned) [229b]
Test B disease control rating (100 = 100% disease control, 0 = no disease control) (Puccinia recondita): 0%
Test A disease control rating (100 = 100% disease control, 0 = no disease control) [1]: 0%
Test E disease control rating (100 = 100% disease control, 0 = no disease control) (Botrytis cinerea): 95%
Test C disease control rating (100 = 100% disease control, 0 = no disease control) (Pyricularia oryzae): 100%
Test D disease control rating (100 = 100% disease control, 0 = no disease control) (Phytophthora infestans): 25%

CCC1(C(=O)NC(C)C=Cc2cc(F)ccc2F)C(C)C1(Cl)Cl (single isomer, unassigned) [267a]
Test B disease control rating (100 = 100% disease control, 0 = no disease control) (Puccinia recondita): 0%
Test A disease control rating (100 = 100% disease control, 0 = no disease control) [1]: 78%
Test E disease control rating (100 = 100% disease control, 0 = no disease control) (Botrytis cinerea): 55%
Test C disease control rating (100 = 100% disease control, 0 = no disease control) (Pyricularia oryzae): 97%
Test D disease control rating (100 = 100% disease control, 0 = no disease control) (Phytophthora infestans): 0%
